The record followed here is ChEMBL document CHEMBL1130186, “Potent alpha 4 beta 1 peptide antagonists as potential anti-inflammatory agents” (J Med Chem, 1997).

The target of experiment [1] is T1, Integrin alpha-4/beta-1 (Homo sapiens, UniProt P05556+P13612). The experiment is described as follows: Inhibition of alpha4-beta1 binding to VCAM-1 in ELISA. The class given is protein-complex assay.
The target in experiment [2] is T1, Integrin alpha-4/beta-1. The experiment in a line: Inhibition of fluorescently labeled alpha4-beta1 positive Ramos cells binding to immobilized VCAM-1. The class given is cell-based.
Experiment [3] has as its target T1, Integrin alpha-4/beta-1. The experiment in a line: Inhibition of purified alpha-4 beta-1 binding to VCAM-1 was determined in an ELISA assay. In kind it is protein-complex assay. A general note: An ELISA detects its analyte on a solid surface through an enzyme-linked reagent.

SMILES strings stand for the structures. *1 amine or outer side, *2 acyl side, *3 side chain or, on linkers, in order; H or OH if unused. Where a SMILES comes first, the peptide text is derived from it. Bridges are numbered along the chain shown (N, C = ends). [ ]: non-standard residue; d: D form. The star is where a group is joined. X5 = O=C([C@H](Cc1c(F)c(F)c(O)c(F)c1F)N[*:1])[*:2]; Tyr(3-Cl) = N[C@@H](Cc1ccc(O)c(Cl)c1)C(=O)O; Tyr(3-I) = N[C@@H](Cc1ccc(O)c(I)c1)C(=O)O; mTyr = N[C@@H](Cc1cccc(O)c1)C(=O)O; 1Naphthoyl = O=C(c1cccc2ccccc12)*; 2Naphthoyl = O=C(c1ccc2ccccc2c1)*; X4 = O=C(c1ccc(-c2ccc(O)cc2)cc1)*; Cha = N[C@@H](CC1CCCCC1)C(=O)O; 3Abz = Nc1cccc(C(=O)O)c1; Inp = O=C(O)C1CCNCC1; GABA = NCCCC(=O)O; βAla = NCCC(=O)O

T1 sequence (P05556 whole entry): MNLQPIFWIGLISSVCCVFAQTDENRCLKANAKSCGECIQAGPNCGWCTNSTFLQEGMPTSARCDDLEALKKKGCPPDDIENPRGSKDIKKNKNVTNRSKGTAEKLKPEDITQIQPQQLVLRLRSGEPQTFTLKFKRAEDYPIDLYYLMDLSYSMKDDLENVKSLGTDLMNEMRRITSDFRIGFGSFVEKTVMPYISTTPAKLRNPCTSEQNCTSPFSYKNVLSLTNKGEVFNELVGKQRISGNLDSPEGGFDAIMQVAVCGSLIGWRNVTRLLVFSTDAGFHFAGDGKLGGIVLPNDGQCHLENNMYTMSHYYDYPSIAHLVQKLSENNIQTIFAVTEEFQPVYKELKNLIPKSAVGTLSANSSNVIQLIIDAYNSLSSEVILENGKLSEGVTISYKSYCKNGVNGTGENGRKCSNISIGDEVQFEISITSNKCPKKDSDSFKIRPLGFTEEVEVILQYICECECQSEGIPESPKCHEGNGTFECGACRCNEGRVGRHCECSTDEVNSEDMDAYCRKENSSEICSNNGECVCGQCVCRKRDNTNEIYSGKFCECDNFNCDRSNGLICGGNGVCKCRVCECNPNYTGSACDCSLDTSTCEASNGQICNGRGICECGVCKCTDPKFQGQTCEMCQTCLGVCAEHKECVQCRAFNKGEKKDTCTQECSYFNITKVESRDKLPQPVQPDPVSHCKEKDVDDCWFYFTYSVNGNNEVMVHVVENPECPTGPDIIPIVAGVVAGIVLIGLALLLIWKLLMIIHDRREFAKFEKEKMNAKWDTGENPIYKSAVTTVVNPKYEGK
T1 sequence (P13612 whole entry): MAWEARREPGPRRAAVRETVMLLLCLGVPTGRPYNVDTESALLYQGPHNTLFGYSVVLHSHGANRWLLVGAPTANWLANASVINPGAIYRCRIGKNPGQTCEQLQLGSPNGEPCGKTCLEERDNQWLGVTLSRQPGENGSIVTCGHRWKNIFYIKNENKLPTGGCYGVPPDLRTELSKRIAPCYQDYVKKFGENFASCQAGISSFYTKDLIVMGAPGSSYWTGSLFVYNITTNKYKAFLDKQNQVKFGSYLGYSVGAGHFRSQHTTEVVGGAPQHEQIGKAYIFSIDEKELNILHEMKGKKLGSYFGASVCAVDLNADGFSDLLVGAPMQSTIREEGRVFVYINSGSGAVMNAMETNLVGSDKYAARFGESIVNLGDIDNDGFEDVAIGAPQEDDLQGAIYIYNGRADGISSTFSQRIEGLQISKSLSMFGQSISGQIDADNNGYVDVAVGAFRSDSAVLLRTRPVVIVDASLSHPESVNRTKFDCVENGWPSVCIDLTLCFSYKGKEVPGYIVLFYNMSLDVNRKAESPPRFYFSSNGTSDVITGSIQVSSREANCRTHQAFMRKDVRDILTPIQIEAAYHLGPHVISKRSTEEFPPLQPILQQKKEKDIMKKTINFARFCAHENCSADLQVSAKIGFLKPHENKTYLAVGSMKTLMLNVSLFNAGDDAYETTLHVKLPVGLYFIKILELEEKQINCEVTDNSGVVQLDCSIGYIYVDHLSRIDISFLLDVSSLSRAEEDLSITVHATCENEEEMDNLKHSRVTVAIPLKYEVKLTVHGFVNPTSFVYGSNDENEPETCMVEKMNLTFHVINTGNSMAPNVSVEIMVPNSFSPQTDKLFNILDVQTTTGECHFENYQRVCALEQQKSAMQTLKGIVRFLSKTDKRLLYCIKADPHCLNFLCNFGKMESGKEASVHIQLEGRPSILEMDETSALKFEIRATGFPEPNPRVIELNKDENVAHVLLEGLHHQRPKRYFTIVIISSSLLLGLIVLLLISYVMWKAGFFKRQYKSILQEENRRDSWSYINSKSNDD

A word on the IC50: it is the concentration needed to halve the response being measured. Read a high IC50 as lower potency. Consider `NC(N)=NCCC[C@H](N)C(=O)N[C@H]1CSSC[C@@H](C(=O)O)NC(=O)[C@@H]2CCCN2C(=O)[C@H](CC(=O)O)NC1=O` (H-RCDPC-OH; disulfide 2-5), for which the values for the IC50 at Integrin alpha-4/beta-1 [1] and on Integrin alpha-4/beta-1 [2] were 3.7 µM and 80 µM, respectively. `N[C@@H](Cc1ccc(O)cc1)C(=O)N[C@H]1CSSC[C@@H](C(=O)O)NC(=O)c2cccc(c2)NC1=O` (H-YC[3Abz]C-OH; disulfide 2-4): the concentration for half-maximal inhibition (IC50) on Integrin alpha-4/beta-1 [1] was 0.008 µM. On to `N[C@@H](Cc1ccccc1)C(=O)N[C@H]1CSSC[C@@H](C(=O)O)NC(=O)[C@@H]2CCCN2C(=O)[C@H](CO)NC1=O` (H-FCSPC-OH; disulfide 2-5), for which the IC50 on Integrin alpha-4/beta-1 [2] was found to be 15 µM; at Integrin alpha-4/beta-1 [3], 1.5 µM. In the case of `O=C(N[C@H]1CSSC[C@@H](C(=O)O)NC(=O)[C@@H]2CCCN2C(=O)[C@H](CO)NC1=O)c1cccc2ccccc12` (1Naphthoyl-CSPC-OH; disulfide 1-4), the half-inhibitory concentration (IC50) amounted to 6.3 µM on Integrin alpha-4/beta-1 [2] and 0.097 µM at Integrin alpha-4/beta-1 [3]. Taken in the same sequence, the figures for `CC(=O)N[C@@H](Cc1ccc(O)cc1)C(=O)N[C@H]1CSSC[C@@H](C(=O)O)NC(=O)[C@@H]2CCCN2C(=O)[C@H]([C@@H](C)O)NC1=O` (Ac-YCTPC-OH; disulfide 2-5) were 0.32 µM and 0.005 µM. Turning to `CC[C@H](C)[C@@H]1NC(=O)[C@H](C)NC(=O)[C@@H](NC(=O)[C@@H](N)Cc2ccc(O)cc2)CSSC[C@@H](C(=O)O)NC1=O` (H-YCAIC-OH; disulfide 2-5), the IC50 is 0.94 µM on Integrin alpha-4/beta-1 [2] and 0.023 µM at Integrin alpha-4/beta-1 [3]. Taken in the same sequence, the figures for `NCCCC[C@H](N)C(=O)N[C@H]1CSSC[C@@H](C(=O)O)NC(=O)[C@@H]2CCCN2C(=O)[C@H](CC(=O)O)NC1=O` (H-KCDPC-OH; disulfide 2-5) were 1000 µM and 250 µM. In the case of `N[C@@H](Cc1ccc(O)cc1)C(=O)N[C@H]1CSSC[C@@H](C(=O)O)NC(=O)C2CCC(CC2)CNC1=O`, the values for the half-inhibitory concentration (IC50) on Integrin alpha-4/beta-1 [2] and on Integrin alpha-4/beta-1 [3] were 19 µM and 0.1 µM, respectively. The corresponding values for `N[C@@H](Cc1ccc(O)c(I)c1)C(=O)N[C@H]1CSSC[C@@H](C(=O)O)NC(=O)[C@@H]2CCCN2C(=O)[C@H](CO)NC1=O` (H-[Tyr(3-I)]CSPC-OH; disulfide 2-5) are 0.2 µM and 0.004 µM. Turning to `CC(=O)N[C@@H](Cc1ccc(O)cc1)C(=O)N[C@H]1CSSC[C@@H](C(=O)O)NC(=O)[C@@H]2CCCN2C(=O)[C@H](CO)NC1=O` (Ac-YCSPC-OH; disulfide 2-5), the IC50 at Integrin alpha-4/beta-1 [2] came out at 0.12 µM; at Integrin alpha-4/beta-1 [3], 0.002 µM. The corresponding values for `O=C(N[C@H]1CSSC[C@@H](C(=O)O)NC(=O)[C@@H]2CCCN2C(=O)[C@H](CO)NC1=O)C1CCNCC1` (H-[Inp]CSPC-OH; disulfide 2-5) are 50 µM and 4.6 µM.

For the molecule `O=C(N[C@H]1CSSC[C@@H](C(=O)O)NC(=O)[C@@H]2CCCN2C(=O)[C@H](CO)NC1=O)c1ccc2ccccc2c1` (2Naphthoyl-CSPC-OH; disulfide 1-4), the IC50 at Integrin alpha-4/beta-1 [2] was found to be 3.6 µM; at Integrin alpha-4/beta-1 [3], 0.054 µM. Taken in the same sequence, the figures for `N[C@@H](Cc1c(F)c(F)c(O)c(F)c1F)C(=O)N[C@H]1CSSC[C@@H](C(=O)O)NC(=O)[C@@H]2CCCN2C(=O)[C@H](CO)NC1=O` (H-[X5]CSPC-OH; disulfide 2-5) were 60 µM and 0.53 µM. In the case of `N[C@@H](Cc1ccc(O)cc1)C(=O)N[C@H]1CSSC[C@@H](C(=O)O)NC(=O)CCCNC1=O` (H-YC[GABA]C-OH; disulfide 2-4), the IC50 at Integrin alpha-4/beta-1 [2] stood at 1 µM; at Integrin alpha-4/beta-1 [3] it was 0.038 µM.

Regarding `N[C@@H](Cc1ccc(O)c(Cl)c1)C(=O)N[C@H]1CSSC[C@@H](C(=O)O)NC(=O)[C@@H]2CCCN2C(=O)[C@H](CO)NC1=O` (H-[Tyr(3-Cl)]CSPC-OH; disulfide 2-5), the results for the concentration for half-maximal inhibition (IC50) at Integrin alpha-4/beta-1 [2] and on Integrin alpha-4/beta-1 [3] were 0.6 µM and 0.007 µM, respectively. Regarding `N=C(N)NCCC[C@H](NC(=O)[C@@H](N)Cc1ccc(O)cc1)C(=O)N[C@H]1CSSC[C@@H](C(=O)O)NC(=O)[C@@H]2CCCN2C(=O)[C@H](CCC(N)=O)NC1=O` (H-YRCQPC-OH; disulfide 3-6), the IC50 on Integrin alpha-4/beta-1 [2] came out at 9 µM; on Integrin alpha-4/beta-1 [3], 0.05 µM. Taken in the same sequence, the figures for `C[C@@H]1NC(=O)[C@@H](NC(=O)[C@@H](N)Cc2ccc(O)cc2)CSSC[C@@H](C(=O)O)NC(=O)[C@H](Cc2ccccc2)NC1=O` (H-YCAFC-OH; disulfide 2-5) were 182 µM and 2.8 µM. The corresponding values for `CC(C)C[C@H](N)C(=O)N[C@@H](CCCNC(=N)N)C(=O)N[C@H]1CSSC[C@@H](C(=O)O)NC(=O)[C@@H]2CCCN2C(=O)[C@H](CC(=O)O)NC1=O` (H-LRCDPC-OH; disulfide 3-6) are 250 µM and 21 µM. Taken in the same sequence, the figures for `C[C@@H]1NC(=O)[C@@H](NC(=O)[C@@H](N)Cc2ccc(O)cc2)CSSC[C@@H](C(=O)O)NC(=O)[C@H](CC2CCCCC2)NC1=O` (H-YCA[Cha]C-OH; disulfide 2-5) were 25 µM and 0.14 µM. With `N[C@@H](Cc1cccc(O)c1)C(=O)N[C@H]1CSSC[C@@H](C(=O)O)NC(=O)[C@@H]2CCCN2C(=O)[C@H](CO)NC1=O` (H-[mTyr]CSPC-OH; disulfide 2-5), the IC50 came out at 25 µM at Integrin alpha-4/beta-1 [2] and 0.25 µM at Integrin alpha-4/beta-1 [3]. The corresponding values for `CC(=O)N[C@@H](CCCN=C(N)N)C(=O)N[C@H]1CSSC[C@@H](C(=O)O)NC(=O)[C@@H]2CCCN2C(=O)[C@H](CC(=O)O)NC1=O` (Ac-RCDPC-OH; disulfide 2-5) are 40 µM and 1.3 µM. The corresponding values for `CC(=O)N[C@@H](Cc1ccc(O)cc1)C(=O)N[C@H]1CSSC[C@@H](C(=O)O)NC(=O)[C@@H]2CCCN2C(=O)[C@H](C)NC1=O` (Ac-YCAPC-OH; disulfide 2-5) are 0.31 µM and 0.004 µM. Taken in the same sequence, the figures for `N[C@@H](Cc1ccc(O)cc1)C(=O)N[C@H]1CSSC[C@@H](C(=O)O)NC(=O)CCNC1=O` (H-YC[βAla]C-OH; disulfide 2-4) were 210 µM and 4.2 µM.

For `N=C(N)NCCC[C@H](NC(=O)[C@@H](N)Cc1ccc(O)cc1)C(=O)N[C@H]1CSSC[C@@H](C(=O)O)NC(=O)[C@@H]2CCCN2C(=O)[C@H](CCC(=O)O)NC1=O` (H-YRCEPC-OH; disulfide 3-6), the IC50 on Integrin alpha-4/beta-1 [2] was found to be 30 µM; on Integrin alpha-4/beta-1 [3], 0.09 µM. On to `CC(=O)N[C@@H](Cc1ccc(O)cc1)C(=O)N[C@H]1CSSC[C@@H](C(=O)O)NC(=O)[C@@H]2CCCN2C(=O)[C@H](Cc2ccc(O)cc2)NC1=O` (Ac-YCYPC-OH; disulfide 2-5), for which the half-maximal inhibitory concentration (IC50) on Integrin alpha-4/beta-1 [2] came to 0.23 µM; at Integrin alpha-4/beta-1 [3], 0.003 µM. In the case of `CC1CNC(=O)[C@@H](NC(=O)[C@@H](N)Cc2ccc(O)cc2)CSSC[C@@H](C(=O)O)NC1=O` (stereo partly drawn), the IC50 at Integrin alpha-4/beta-1 [2] came to 2.7 µM; on Integrin alpha-4/beta-1 [3], 0.047 µM. `O=C(N[C@H]1CSSC[C@@H](C(=O)O)NC(=O)[C@@H]2CCCN2C(=O)[C@H](CO)NC1=O)c1ccc(-c2ccc(O)cc2)cc1` (X4-CSPC-OH; disulfide 1-4): the IC50 is 120 µM at Integrin alpha-4/beta-1 [2] and 1.65 µM on Integrin alpha-4/beta-1 [3].
